# Measured values from patent US12435087B2, “Modulators of DCN-1 and methods of use thereof” (Cellarity, Inc., priority 2023, dated 2025).
# Like-named read-outs stand apart in the source and are kept apart here.
# What was measured:
# DCN1 protein = DCN1 protein (Homo sapiens (Human), UniProt Q96GG9); test: Intact protein MS analysis with the RapidFire-TOF system (covalent adduct formation); format: binding; details: 400 nM DCN1, incubated at room temperature for 3 hours
# Method in brief: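 Tag-free His-TEV-DCN1 expressed in E. coli at 400 nM in 25 mM Tris-HCl, 200 mM NaCl, 1 mM DTT, incubated with 11 compound concentrations at room temperature for 3 h unless otherwise specified. Quenched with 0.2% formic acid; intact-protein RapidFire Q-TOF MS, deconvoluted to detect parent and compound-adduct masses.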
# [1] = molecular target: DCN1 (DCUND1) protein PONY domain (Homo sapiens (Human), UniProt Q96GG9); test: TR-FRET assay (binding to DCN-1, displacement of FAM-labeled probe)
# DCN1 (DCUND1) protein PONY domain, sequence (Q96GG9 60-248): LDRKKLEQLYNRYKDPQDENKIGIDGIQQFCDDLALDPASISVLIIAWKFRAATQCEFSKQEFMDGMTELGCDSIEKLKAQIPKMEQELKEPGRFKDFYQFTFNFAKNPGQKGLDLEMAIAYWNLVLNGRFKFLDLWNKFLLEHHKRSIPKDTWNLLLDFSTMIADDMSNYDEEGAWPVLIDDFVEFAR
# Method in brief: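 Compounds read at 1, 5 and 24 h, 0.1% final DMSO, by TR-FRET between terbium-streptavidin on biotinylated DCN1 PONY domain (E. coli) and a FAM-tagged non-covalent inhibitor probe. Two setups used, 5 nM protein with 20 nM labelled probe, or 0.31 nM protein with 100 nM labelled plus 800 nM unlabelled probe; buffer had TritonX and 200 mM NaCl. % activity relative to high (with probe) and low (without probe) controls.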
# [2] = 24 hr after treatment with compound, read-out: TR FRET IC50 24 hr
# [3] = TR FRET IC50 1 hr (nM), 1 hr after treatment with compound
# [4] = read-out: TR FRET IC50 1 hr, 1 hr after treatment with compound
# DCN1 protein, sequence (Q96GG9 whole entry): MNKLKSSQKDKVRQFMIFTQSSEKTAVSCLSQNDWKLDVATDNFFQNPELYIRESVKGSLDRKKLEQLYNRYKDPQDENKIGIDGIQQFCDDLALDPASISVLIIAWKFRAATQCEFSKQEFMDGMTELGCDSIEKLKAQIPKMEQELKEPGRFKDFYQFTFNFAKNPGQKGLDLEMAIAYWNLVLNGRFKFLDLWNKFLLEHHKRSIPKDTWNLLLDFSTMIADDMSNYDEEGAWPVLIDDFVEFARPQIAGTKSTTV
compound,measurement,setting,value
CC#CC(=O)Nc1cccc([C@H]2c3c(C)nn(-c4ccccc4)c3N(CC)C(=O)[C@H]2NC(=O)c2cccc(C(F)(F)F)c2)c1 (racemic) [Compound I-19],Emax,DCN1 protein,0 to 30%
same,IC50,[1]; [2],> 3000 nM
same,IC50,[1]; [3],> 3000 nM
C=C(CN1CC2(COC2)C1)C(=O)N(C)Cc1cccc([C@@H]2c3cnn(-c4ccccc4)c3N(CC)C(=O)[C@H]2NC(=O)c2cccc(C(F)(F)F)c2)c1 [Compound I-219],Emax,DCN1 protein,80 to 100%
same,IC50,[1]; [2],≤ 200 nM
same,IC50,[1]; [3],200 to 1000 nM
"CCN1C(=O)[C@H](NC(=O)c2cccc(C(F)(F)F)c2)[C@@H](c2cccc(N3CC=CC3=O)c2)c2c(C)nn(-c3ccccc3)c21 (racemic) [Compound I-28, rac-N-((4R,5S)-7-ethyl-3-methyl-6-oxo-4-(3-(2-oxo-2,5-dihydro-1H-pyrrol-1-yl)phenyl)-1-phenyl-4,5,6,7-tetrahydro-1H-pyrazolo[3,4-b]pyridin-5-yl)-3-(trifluoromethyl)benzamide]",Emax,DCN1 protein,80 to 100%
same,IC50,[1]; [2],1000 to 3000 nM
same,IC50,[1]; [3],1000 to 3000 nM
CCN1C(=O)[C@H](NC(=O)c2cccc(C(F)(F)F)c2)[C@@H](c2cccc(NC(=O)/C=C/CN(C)C)c2)c2c(C)nn(-c3ccccc3)c21 (racemic) [Compound I-38],Emax,DCN1 protein,80 to 100%
same,IC50,[1]; [3],1000 to 3000 nM
C=C(CN1CCOCC1)C(=O)NCc1cccc([C@@H]2c3cnn(-c4ccccc4)c3N(CC)C(=O)[C@H]2NC(=O)c2ccn(C(F)(F)F)n2)c1 [Compound I-135],Emax,DCN1 protein,80 to 100%
same,IC50,[1]; [2],≤ 200 nM
same,IC50,[1]; [4],≤ 200 nM
CCN1C(=O)[C@@H](NC(=O)c2cccc(C(F)(F)F)c2)[C@@H](c2cccc(NC(=O)[C@H](C)Cl)c2)c2c(C)nn(-c3ccccc3)c21 (mixture of isomers) [Compound I-16],Emax,DCN1 protein,0 to 30%
same,IC50,[1]; [2],> 3000 nM
same,IC50,[1]; [4],> 3000 nM
CCN1C(=O)[C@H](NC(=O)c2cccc(C(F)(F)F)c2)[C@@H](c2cccc(NC(=O)[C@H](F)Cl)c2)c2c(C)nn(-c3ccccc3)c21 (mixture of isomers) [Compound I-150],Emax,DCN1 protein,80 to 100%
same,IC50,[1]; [2],200 to 1000 nM
same,IC50,[1]; [3],1000 to 3000 nM
CCN1C(=O)[C@@H](NC(=O)c2nccc(C(F)(F)F)n2)[C@H](c2cccc(NC(=O)C3=CCN(C4COC4)C3)c2)c2c(C)nn(-c3ccccc3)c21 [Compound I-226],Emax,DCN1 protein,0 to 30%
same,IC50,[1]; [2],200 to 1000 nM
same,IC50,[1]; [3],1000 to 3000 nM
C=C(CN1CC(F)(F)C1)C(=O)Nc1cccc([C@@H]2c3c(C)nn(-c4ccccc4)c3N(CC)C(=O)[C@H]2NC(=O)c2cccc(C(F)(F)F)c2)c1 (racemic) [Compound I-11],Emax,DCN1 protein,80 to 100%
same,IC50,[1]; [2],≤ 200 nM
same,IC50,[1]; [4],≤ 200 nM
CCN1C(=O)[C@H](NC(=O)c2cccc(C(F)(F)F)c2)[C@@H](c2ccccc2NC(=O)[C@H](C)Br)c2cnn(-c3ccccc3)c21 (mixture of isomers) [Compound I-72],Emax,DCN1 protein,80 to 100%
same,IC50,[1]; [2],200 to 1000 nM
same,IC50,[1]; [3],1000 to 3000 nM
C/C=C(\CN1CCN(C2COC2)CC1)C(=O)NCc1cccc([C@@H]2c3cnn(-c4ccccc4)c3N(CC)C(=O)[C@H]2NC(=O)c2nccc(C(F)(F)F)n2)c1 [Compound I-220],Emax,DCN1 protein,80 to 100%
same,IC50,[1]; [2],≤ 200 nM
same,IC50,[1]; [3],200 to 1000 nM
C/C=C(\CN1CCN(C2COC2)CC1)C(=O)Nc1cccc([C@@H]2c3c(C)nn(-c4ccccc4)c3N(CC)C(=O)[C@H]2NC(=O)c2nccc(C(F)(F)F)n2)c1 (racemic) [Compound I-229],Emax,DCN1 protein,80 to 100%
same,IC50,[1]; [2],≤ 200 nM
same,IC50,[1]; [3],≤ 200 nM
C=C(CN1CC2(COC2)C1)C(=O)Nc1cccc([C@@H]2c3c(C)nn(-c4ccccc4)c3N(CC)C(=O)[C@H]2NC(=O)c2cccc(C(F)(F)F)c2)c1 (racemic) [Compound I-64],Emax,DCN1 protein,80 to 100%
same,IC50,[1]; [2],≤ 200 nM
same,IC50,[1]; [4],≤ 200 nM
C=C(CN1CC(F)(F)C1)C(=O)NCc1cccc([C@@H]2c3cnn(-c4ccccc4)c3N(CC)C(=O)[C@H]2NC(=O)c2cccc(C(F)(F)F)c2)c1 [Compound I-14],Emax,DCN1 protein,80 to 100%
same,IC50,[1]; [2],≤ 200 nM
same,IC50,[1]; [4],≤ 200 nM
C=C(CN1CCC(F)(F)C1)C(=O)NCc1cccc([C@@H]2c3cnn(-c4ccccc4)c3N(CC)C(=O)[C@H]2NC(=O)c2cccc(C(F)(F)F)c2)c1 [Compound I-44],Emax,DCN1 protein,80 to 100%
same,IC50,[1]; [2],≤ 200 nM
same,IC50,[1]; [3],200 to 1000 nM
CCN1C(=O)[C@@H](NC(=O)c2cccc(C(F)(F)F)c2)[C@@H](c2cccc(NC#N)c2)c2c(C)nn(-c3ccccc3)c21 (racemic) [Compound I-22],Emax,DCN1 protein,0 to 30%
same,IC50,[1]; [2],> 3000 nM
same,IC50,[1]; [3],> 3000 nM
C=C(CN1CCC1)C(=O)NCc1cccc([C@@H]2c3cnn(-c4ccccc4)c3N(CC)C(=O)[C@H]2NC(=O)c2cccc(C(F)(F)F)c2)c1 [Compound I-1],Emax,DCN1 protein,80 to 100%
same,IC50,[1]; [2],≤ 200 nM
same,IC50,[1]; [4],≤ 200 nM
C=CC(=O)Nc1cccc([C@H]2c3c(C)nn(-c4ccccc4)c3N(CC)C(=O)[C@@H]2NC(=O)c2cccc(C(F)(F)F)c2)c1 (racemic) [Compound I-77],Emax,DCN1 protein,80 to 100%
same,IC50,[1]; [2],200 to 1000 nM
same,IC50,[1]; [3],1000 to 3000 nM
C=C(CN1CCN(C2COC2)CC1)C(=O)NCc1cccc([C@@H]2c3cnn(-c4ccccc4)c3N(CC)C(=O)[C@H]2NC(=O)c2cccc(C(F)(F)F)c2)n1 [Compound I-216],Emax,DCN1 protein,80 to 100%
same,IC50,[1]; [2],≤ 200 nM
same,IC50,[1]; [3],200 to 1000 nM
"C=C(C(=O)NCc1cccc([C@@H]2c3cnn(-c4ccccc4)c3N(CC)C(=O)[C@H]2NC(=O)c2nccc(C(F)(F)F)n2)c1)C(C)N1CC2(COC2)C1 (stereo partly drawn) [Compound I-221, N-((4R,5S)-7-ethyl-4-(3-((2-methylene-3-(2-oxa-6-azaspiro[3.3]heptan-6-yl)butanamido)methyl)phenyl)-6-oxo-1-phenyl-4,5,6,7-tetrahydro-1H-pyrazolo[3,4-b]pyridin-5-yl)-4-(trifluoromethyl)pyrimidine-2-carboxamide]",Emax,DCN1 protein,80 to 100%
same,IC50,[1]; [2],≤ 200 nM
same,IC50,[1]; [4],≤ 200 nM
"C/C=C(\CN1CCN(C2COC2)CC1)C(=O)NCc1cccc([C@@H]2c3cnn(-c4ccccc4)c3N(CC)C(=O)[C@H]2NC(=O)c2ccn(C(F)(F)F)n2)c1 [Compound I-230A, N-((4R,5S)-7-ethyl-4-(3-(((E)-2-((4-(oxetan-3-yl)piperazin-1-yl)methyl)but-2-enamido)methyl)phenyl)-6-oxo-1-phenyl-4,5,6,7-tetrahydro-1H-pyrazolo[3,4-b]pyridin-5-yl)-1-(trifluoromethyl)-1H-pyrazole-3-carboxamide]",Emax,DCN1 protein,80 to 100%
same,IC50,[1]; [2],≤ 200 nM
same,IC50,[1]; [3],200 to 1000 nM
"C/C=C(\CN1CCN(C2COC2)CC1)C(=O)Nc1cccc([C@@H]2c3cnn(-c4ccccc4)c3N(CC)C(=O)[C@H]2NC(=O)c2nccc(C(F)(F)F)n2)c1 [Compound I-232, N-((4R,5S)-7-ethyl-4-(3-((E)-2-((4-(oxetan-3-yl)piperazin-1-yl)methyl)but-2-enamido)phenyl)-6-oxo-1-phenyl-4,5,6,7-tetrahydro-1H-pyrazolo[3,4-b]pyridin-5-yl)-4-(trifluoromethyl)pyrimidine-2-carboxamide]",Emax,DCN1 protein,80 to 100%
same,IC50,[1]; [2],≤ 200 nM
same,IC50,[1]; [3],≤ 200 nM
CCN1CC=C(C(=O)Nc2cccc([C@@H]3c4c(C)nn(-c5ccccc5)c4N(CC)C(=O)[C@H]3NC(=O)c3ccn(C(F)(F)F)n3)c2)C1 [Compound I-227],Emax,DCN1 protein,80 to 100%
same,IC50,[1]; [2],≤ 200 nM
same,IC50,[1]; [3],200 to 1000 nM
"CCN1C(=O)[C@H](NC(=O)c2cccc(C(F)(F)F)c2)[C@@H](c2cccc(NC(=O)/C(C#N)=C/C(C)(C)C)c2)c2c(C)nn(-c3ccccc3)c21 (racemic) [Compound I-69, ˜{N}—[˜{rac}-(4˜{S},5˜{R})-7-ethyl-3-methyl-6-oxo-1-phenyl-4-[3-[[˜{rac}-(˜{E})-2-cyano-4,4-dimethyl-pent-2-enoyl]amino]phenyl]-4,5-dihydropyrazolo[3,4-b]pyridin-5-yl]-3-(trifluoromethyl)benzamide]",Emax,DCN1 protein,80 to 100%
same,IC50,[1]; [2],200 to 1000 nM
same,IC50,[1]; [3],200 to 1000 nM
CCN1C(=O)[C@@H](NC(=O)c2cccc(C(F)(F)F)c2)[C@@H](c2cccc(NC(=O)C3=CCCC3)c2)c2c(C)nn(-c3ccccc3)c21 (racemic) [Compound I-24],Emax,DCN1 protein,0 to 30%
same,IC50,[1]; [2],> 3000 nM
same,IC50,[1]; [3],> 3000 nM
C=C(C(=O)NCc1cccc([C@@H]2c3cnn(-c4ccccc4)c3N(CC)C(=O)[C@H]2NC(=O)c2nccc(C(F)(F)F)n2)c1)C(C)N(C)C1COC1 (some centres unmarked) [Compound I-217],Emax,DCN1 protein,80 to 100%
same,IC50,[1]; [2],≤ 200 nM
same,IC50,[1]; [4],≤ 200 nM
C=C(CN1CCOCC1)C(=O)NCc1cccc([C@@H]2c3c(C)nn(-c4ccccc4)c3N(CC)C(=O)[C@H]2NC(=O)c2cccc(C(F)(F)F)c2)c1 [Compound I-215],Emax,DCN1 protein,80 to 100%
same,IC50,[1]; [2],≤ 200 nM
same,IC50,[1]; [4],≤ 200 nM
C/C=C(\CN1CCN(C2COC2)CC1)C(=O)Nc1cccc([C@@H]2c3cnn(-c4ccccc4)c3N(CC)C(=O)[C@H]2NC(=O)c2ccn(C3CC3)n2)c1 [Compound I-233],Emax,DCN1 protein,80 to 100%
same,IC50,[1]; [2],≤ 200 nM
same,IC50,[1]; [3],≤ 200 nM
"C=C(C(=O)NCc1cccc([C@@H]2c3cnn(-c4ccccc4)c3N(CC)C(=O)[C@H]2NC(=O)c2csc(C(F)(F)F)n2)c1)C(C)(C)N(C)C1COC1 [Compound I-231, N-((4R,5S)-7-ethyl-4-(3-((3-methyl-3-(methyl(oxetan-3-yl)amino)-2-methylenebutanamido)methyl)phenyl)-6-oxo-1-phenyl-4,5,6,7-tetrahydro-1H-pyrazolo[3,4-b]pyridin-5-yl)-2-(trifluoromethyl)thiazole-4-carboxamide]",Emax,DCN1 protein,80 to 100%
same,IC50,[1]; [2],≤ 200 nM
same,IC50,[1]; [4],≤ 200 nM
